# Measurements reported in patent US11072567B2, “Urea-based blend composition and method for the manufacture thereof” (YARA INTERNATIONAL ASA, priority 2015, dated 2021).
# Columns and labels:
# [1] = Stability of nBTPT on urea blended with DAP, bagged storage at 20° C., HPLC analysis of nBTPT content; type: physicochemical; settings: 2500 ppm added; 900 ppm nBTPT as Agrotain Ultra on urea blended with DAP 1:1; 14 days bagged storage at 20° C.
# Description: (§1) For lab scale experiments, nBTPT was applied onto urea by adding 1.2 kg of urea-based compound to a lab scale drum. In a next step, the nBTPT material was slowly added. A residence time of 10 minutes was applied and the rotating speed of the drum was consequently the same in each experiment. In case a moisture repellent coating was added, a nebulizer was used and depending on the order of addition, the moisture repellent coating was added before or after addition of the nBTPT material. Before use, the moisture repellent coating was preheated to 80° C. Larger scale experiments with amounts up to 40 kg of fertilizer material were performed in a concrete mixer.
# (§2) In a next step, one or more reactive alkaline or alkaline-forming inorganic or organic compounds that is able to interact with the one or more components selected from the group of nitrates, phosphates, sulphates and chlorides was added;
# (§3) In a next step, a particulate material, comprising one or more components selected from the group of nitrates, phosphates, sulphates and chlorides was added;
# (§4) All the components were mixed thoroughly.
# Optionally, a coating to one or more of the particulate components that is able to increase at least the anti-caking and/or water repellent properties of said urea-based blend composition was added. Importantly, all the steps can be interchanged or the steps can be performed simultaneously.
# (§5) The samples were stored under several conditions, dependent on the type of samples: • 20° C. closed plastic container with head space (Climate chamber, 80% relative humidity) • Bagged at room temperature (20-25° C.) or in nissenhut (an unconditioned bulk hall) • Open to air in nissenhut • Cylinder test in nissenhut • Open pile in nissenhut
# (§6) HPLC analysis of nBTPT is done as described in the procedure CEN 15688-2007.
# (§7) In practice, the urea-based compound treated with nBTPT was picked and separated manually from the particulate material, comprising one or more components selected from the group of nitrates, phosphates, sulphates and chlorides, and then subsequently dissolved in water for HPLC analysis.
# Coating: Moisture repellent (MR) coating was made according to EP 0768993 A1 (Norsk Hydro ASA) by mixing about 28 weight % of wax, about 68 weight % of oil and about 4 weight % of a resin, applied in an amount of about 0.1-0.5% weight % to the fertilizer. It will be referred herein as NH coating.
# [2] = Stability of nBTPT in/on urea blends, storage open to air in jars in nissenhut, HPLC analysis of nBTPT content; type: physicochemical; settings: for effect of addition on the stability of nBTPT: 2650 ppm added, 14 days open to air in jars at nissenhut; for stability of nBTPT (degradation): 35 days open to air in jars in nissenhut
# Description: nBTPT was mixed in urea in the following way: nBTPT was added to urea melt and subsequently this mixture was granulated in a fluidized bed granulator.
# as §1, §2, §3, §4, §5
# (§8) Typically, a day/night cycle is generated in the nissenhut, with temperature fluctuations between 0 to 42° C. and fluctuations of relative humidity between 20 and 90%, which can be compared with real life storage in silos.
# as §6, §7
# [3] = Stability of nBTPT in/on urea:AS blend, bagged versus open to air storage in nissenhut; type: physicochemical; settings: 500 ppm nBTPT in/on urea blended with granular AS 1:1; 35 days in nissenhut
# Description: FIG. 8. Stability of different nBTPT formulations (500 ppm) in and on urea in a blend with granular AS: bagged versus open to air storage-% recovery of nBTPT after 35 days of storage in nissenhut (day/night cycle 16-42° C./27-77% relative humidity). • A=[500 ppm nBTPT powder in urea]+AS 1:1 • B=[500 ppm nBTPT powder on urea]+AS 1:1 • C=[500 ppm nBTPT as Agrotain® Ultra in urea]+AS 1:1 • D=[500 ppm nBTPT as Agrotain® Ultra on urea]+AS 1:1
# as §5, §8, §6, §7
# [4] = type: physicochemical
# Text: With regard to the activity of the reactive alkaline or alkaline-forming inorganic or organic compounds, without being bound by theory, it is hypothesised that the reactive alkaline or alkaline-forming inorganic or organic compound neutralises the released phosphoric acid which is formed during decomposition of the urease inhibitor of the type phosphoric triamide in view of the fact that the decomposition of the urease inhibitor of the type phosphoric triamide is acid-catalysed. As such, the decomposition of the urease inhibitor of the type phosphoric triamide is slowed down. Furthermore, the stabilizer has the ability to immobilize the nitrates, phosphates, sulphates and chlorides and/or to convert the nitrates, phosphates, sulphates and chlorides into a form which is less reactive with the urease inhibitor of the type phosphoric triamide. For example, calcium oxide may react with ammonium sulphate in the presence of water, which is always present in small amounts in urea, to form calcium sulphate, which is nearly insoluble in an aqueous environment, such as a soil.
compound,measurement,setting,value
"O=C([O-])[O-].[Ca+2] [CaCO3, calcium carbonate]",effect of addition on the stability of nBTPT,[1],beneficial effect
"[O]=[Ca] [CaO, calcium oxide]",effect of addition on the stability of nBTPT,[1],beneficial effect
same,effect of addition on the stability of nBTPT,[2]; 500 ppm nBTPT powder in or on urea blended with DAP and KCl triple 19,beneficial effect
same,effect of addition on the stability of nBTPT,[2]; 500 ppm nBTPT powder in or on urea blended with granular AS 1:1,beneficial effect
"[O]=[Mg] [MgO, magnesium oxide]",effect of addition on the stability of nBTPT,[1],beneficial effect
"[O]=[Zn] [ZnO, zinc oxide]",effect of addition on the stability of nBTPT,[1],beneficial effect
OCCNCCO [diethanolamine],effect of addition on the stability of nBTPT,[1],beneficial effect
"CCCCNP(N)(N)=S [nBTPT, N-(n-butyl) thiophosphoric triamide]",effect of bagged storage versus open to air storage on stability of nBTPT,[3],beneficial effect of bagged storage
same,stability of nBTPT (degradation),"[2]; liquid nBTPT formulations in and on urea (500 ppm) blended with granular AS 1:1, 16-42° C./27-77% relative humidity",degrades very fast
same,stability of nBTPT (degradation),"[2]; nBTPT formulations in and on urea (500 ppm) blended with DAP and KCl, triple 19 ratio",degrades very dramatically
same,stability of nBTPT (degradation),[2]; solid nBTPT in and on urea (500 ppm) blended with DAP 1:1,degrades very fast
same,stability of nBTPT (degradation),[2]; solid nBTPT in and on urea (500 ppm) blended with KCl 1:1,degrades very fast
CCN(CC)CC [triethylamine],effect of addition on the stability of nBTPT,[1],beneficial effect
talc,stabilizing effect on nBTPT,[4],no stabilizing effect
